The values below are quoted from earlier work in patent US20050112193A1, “Immediate-release formulations of acid-labile pharmaceutical compositions” (priority 2003, published 2005).

As a reminder, the pKa is the pH at which an ionisable group is half protonated.

The conditions of data set [1]: for time to undergo 50% degradation: acidic stomach / gastric environment, pH of 1.2 given for pantoprazole sodium and rabeprazole sodium.
The conditions of data set [2]: in water.

Where two headings read alike, the source gives them in different places.

On to `Cc1c(OCC(F)(F)F)ccnc1C[S+]([O-])c1nc2ccccc2[nH]1` (stereo not drawn) [Lansoprazole], for which the pKa was 4.1. In addition, the “time to undergo 50% degradation” value in data set [1] was 2 min. Also, the “time for 50% of drug to be degraded (t ½)” value (shortened to “time for 50% of drug”) in data set [1] (pH 1.2) was 0.0333 h. Besides, the “time for 50% of drug” value in data set [1] (pH 5.1) was 1.5 h. In data set [1] (pH 6), the “time for 50% of drug” value was 6.4 h. The “time for 50% of drug” value in data set [1] (pH 7) was 35 h. Further, in data set [2] (listed as Lansoprazole base), the Solubility entry is given as “very slightly soluble”.
In the case of `COc1ccc2[nH]c([S+]([O-])Cc3ncc(C)c(OC)c3C)nc2c1` (stereo not drawn) [Omeprazole, 5-methoxy-2-[[(4-methoxy-3,5-dimethyl-2-pyridinyl)methyl]sulfinyl]-1H-benzimidazole], the pKa was 3.9. The “time to undergo 50% degradation” value in data set [1] is recorded as “less than 3 minutes”. The “time for 50% of drug” value in data set [1] (pH 1.2) was 0.0467 h. The “time for 50% of drug” value in data set [1] (pH 5.1) was 1.4 h. The “time for 50% of drug” value in data set [1] (pH 6) is 7.3 h. The “time for 50% of drug” value in data set [1] (pH 7) was 39 h. The Solubility entry in data set [2] (listed as Omeprazole base) is given as “slightly soluble”.
`COc1ccnc(C[S+]([O-])c2nc3ccc(OC(F)F)cc3[nH]2)c1OC` (stereo not drawn) [Pantoprazole sodium]: the pKa is on record as 3. In data set [1], the “time to undergo 50% degradation” value is “less than 5 minutes”. In addition, the “time for 50% of drug” value in data set [1] (pH 1.2) is 0.0767 h. In addition, in data set [1] (pH 5), the “time for 50% of drug” value was 2.8 h. Moreover, the “time for 50% of drug” value in data set [1] (pH 5.1) is 4.7 h. Moreover, the “time for 50% of drug” value in data set [1] (pH 6) was 21 h. Besides, in data set [1] (pH 7), the “time for 50% of drug” value is 73 h. The Solubility result in data set [2] was “very soluble”.
Consider `COCCCOc1ccnc(C[S+]([O-])c2nc3ccccc3[nH]2)c1C` (stereo not drawn) [Rabeprazole sodium], for which the pKa is given as 4.9. Moreover, the “time to undergo 50% degradation” value in data set [1] is “less than 1.5 minutes”. The “time for 50% of drug” value in data set [1] (pH 1.2) is 0.0217 h. Also, the “time for 50% of drug” value in data set [1] (pH 5.1) was 0.12 h. For the same compound, the Solubility result in data set [2] is on record as “Very soluble”.
